Experimental data: patent publication US20160362416A1, “ANTIVIRAL COMPOUNDS” (Gilead Sciences, Inc., priority 2012, published 2016)

What was measured:
[1] = system: stable HCV 1b RLuc replicon cells (genotype 1b Con1 replicon); experiment: HCV genotype 1b RLuc replicon reporter assay; format: cell-based; conditions: Hepatitis C virus; stable genotype 1b Con1 RLuc replicon cells, 72 hours
Summary of the method: (§1)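 Chimeric replicons for 3a and 4a use a Pi-RLuc reporter and were transiently transfected into Huh-Lunet cells; the 2b chimera (RLuc-Neo) was likewise transient in Huh-Lunet; 1b cells are stable. Cells were exposed to 3-fold serial compound dilutions for 72 h, then lysed. EC50s came from non-linear regression of Renilla luciferase signal.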

[2] = system: stable HCV 1a RLuc replicon cells (genotype 1a H77 replicon); experiment: HCV genotype 1a RLuc replicon reporter assay; format: cell-based; conditions: Hepatitis C virus; stable genotype 1a H77 RLuc replicon cells, 72 hours
[3] = system: stable HCV 2a JFH-1 Rluc replicon cells (L31 present in NS5A); experiment: HCV genotype 2a JFH-1 RLuc replicon reporter assay; format: cell-based; conditions: Hepatitis C virus, 72 h, read-out: 2a JFH (nM)
[4] = system: NS5A chimeric genotype 2a JFH-1 replicon with genotype 2a J6 strain NS5A gene (M31); experiment: HCV genotype 2a J6 NS5A chimeric replicon assay, transient (t); format: cell-based; conditions: Hepatitis C virus, 72 h, read-out: 2a J6 (t) (nM)
[5] = system: NS5A chimeric genotype 2a JFH-1 replicon with genotype 2b MD2b-1 strain NS5A gene (M31); experiment: HCV genotype 2b NS5A chimeric replicon assay, transient (t); format: cell-based; conditions: Hepatitis C virus, 72 h, read-out: 2b (t) (nM)
Description: (§2) Evaluation of cell-based anti-HCV activity: Antiviral potency (EC50) was determined using a Renilla luciferase (RLuc)-based HCV replicon reporter assay. To perform the assay for genotype 1 and 2a JFH-1, stable HCV 1a RLuc replicon cells (harboring a dicistronic genotype 1a H77 replicon that encodes a RLuc reporter), stable HCV lb RLuc replicon cells (harboring a dicistronic genotype 1b Conl replicon that encodes a RLuc reporter), or stable HCV 2a JFH-1 Rluc replicon cells (harboring a dicistronic genotype 2a JFH-1 replicon that encodes a RLuc reporter; with L31 present in NS5A) were dispensed into 384-well plates for EC50 assays. To perform the assay for genotype 2a (with M31 present in NS5A) or 2b, NS5A chimeric genotype 2a JFH-1 replicons that encodes a RLuc-Neo reporter and either genotype 2a J6 strain NS5A gene or genotype 2b MD2b-1 strain NS5A gene (both with M31 present) respectively, were either transiently transfected (t) into Huh-Lunet cells or were established as stably replicating replicon cells (s) is provided. Either cells were dispensed into 384-well plates for EC50 assays. To perform the assay for genotype 3 and 4, NS5A chimeric genotype 1b Conl replicons that encodes a Pi-RLuc reporter and either genotype 3a S52 strain NS5A gene or genotype 4a ED43 strain NS5A gene respectively, were transiently transfected (t) into Huh-Lunet cells, which were subsequently dispensed into 384-well plates. Compounds were dissolved in DMSO at a concentration of 10 mM and diluted in DMSO either manually or using an automated pipeting instrument. Serially 3-fold diluted compounds were either manually mixed with cell culture media and added to the seeded cells or directly added to the cells using an automated instrument. DMSO was used as a negative (solvent; no inhibition) control, and the protease inhibitor ITMN-191 was included at a concentration >100×EC50 as a positive control. 72 hours later, cells were lysed and Renilla luciferase activity quantified as recommended by the manufacturer (Promega-Madison, Wis.). Non-linear regression was performed to calculate EC50 values.

[6] = system: NS5A chimeric genotype 1b Con1 replicon with genotype 3a S52 strain NS5A gene; experiment: HCV genotype 3a NS5A chimeric replicon assay; format: cell-based; conditions: Hepatitis C virus, 72 h, read-out: 3a (nM)
Summary of the method: as §1

[7] = system: NS5A chimeric genotype 1b Con1 replicon with genotype 4a ED43 strain NS5A gene; experiment: HCV genotype 4a NS5A chimeric replicon assay; format: cell-based; conditions: Hepatitis C virus, 72 h, read-out: 4a (s) (nM)
[8] = system: L31V/Y93H in genotype 1b NS5A replicon; experiment: Resistance mutant replicon assay, genotype 1b NS5A L31V/Y93H; format: cell-based, HCV; conditions: Hepatitis C virus, read-out: 1b L31V/Y93H (nM)
Description: as §2
(§3) To determine the antiviral potency (EC50) against resistance mutants, resistance mutations, including M28T, Q30R, Q30H, Q30E, L31M, Y93C, Y93H, and Y93N in genotype 1a NS5A, Y93H and L31V/Y93H in genotype 1b NS5A, and Y93H for in genotype 3a NS5A, were introduced individually into either 1a Pi-Rluc or 1b Pi-Rluc replicons by site directed mutagenesis. Replicon RNA of each resistant mutant was transiently transfected into Huh-7-derived cured-51 cells and antiviral potency was determined on these transfected cells as described above.

[9] = system: Q30E in genotype 1a NS5A replicon; experiment: Resistance mutant replicon assay, genotype 1a NS5A Q30E; format: cell-based, HCV; conditions: Hepatitis C virus, read-out: 1a Q30E (nM)
Description: as §2, §3

[10] = system: Y93H in genotype 1a NS5A replicon; experiment: Resistance mutant replicon assay, genotype 1a NS5A Y93H; format: cell-based, HCV; conditions: Hepatitis C virus, read-out: 1a Y93H (nM)
Summary of the method: (§4)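 Renilla luciferase signal after 72 h compound exposure gave EC50 via non-linear regression. Cells were Huh-7-derived cured-51 transiently transfected with replicon RNA carrying the NS5A mutation introduced by site-directed mutagenesis into 1a or 1b Pi-RLuc replicons.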

[11] = system: Y93N in genotype 1a NS5A replicon; experiment: Resistance mutant replicon assay, genotype 1a NS5A Y93N; format: cell-based, HCV; conditions: Hepatitis C virus, read-out: 1a Y93N (nM)
Summary of the method: as §4

[12] = system: Y93H in genotype 3a NS5A replicon; experiment: Resistance mutant replicon assay, genotype 3a NS5A Y93H; format: cell-based, HCV; conditions: Hepatitis C virus, read-out: 3a Y93H (nM)
Summary of the method: as §4

Row | Compound | EC50 [1] [nM] | EC50 [2] [nM] | EC50 [3] [nM] | EC50 [4] [nM] | EC50 [5] [nM] | EC50 [6] [nM] | EC50 [7] [nM] | EC50 [8] [nM] | EC50 [9] [nM] | EC50 [10] [nM] | EC50 [11] [nM] | EC50 [12] [nM]
1 | CC[C@H]1CC[C@@H](c2nc3ccc4cc5c(cc4c3[nH]2)OCc2cc(-c3cnc([C@@H]4CC[C@H](C)N4C(=O)[C@@H](NC(=O)OC)C(C)C)[nH]3)ccc2-5)N1C(=O)[C@@H](NC(=O)OC)C1C[C@@H](C)O[C@H](C)C1 (stereo partly drawn) [Example AC, Methyl {(1S)-1-[(2R,6R)-2,6-dimethyltetrahydro-2H-pyran-4-yl]-2-[(2S,5S)-2-ethyl-5-(9-{2-[(2S,5S)-1-{(2S)-2-[(methoxycarbonyl)amino]-3-methylbutanoyl}-5-methylpyrrolidin-2-yl]-1H-imidazol-5-yl}-1,11-dihydroisochromeno[4′,3′:6,7]naphtho[1,2-d]imidazol-2-yl)pyrrolidin-1-yl]-2-oxoethyl}carbamate] | 0.03 | 0.025 | 0.016 | 0.003 | 0.02 | 0.019 | 0.005 | 1.33 | 0.312 | 0.832 | 1.63 | 14.5
2 | COC[C@H]1C[C@@H](c2ncc(-c3ccc4c(c3)COc3cc5c(ccc6nc([C@@H]7CC[C@H](C)N7C(=O)[C@@H](NC(=O)OC)C(C)C)[nH]c65)cc3-4)[nH]2)N(C(=O)[C@@H](NC(=O)OC)C2C[C@@H](C)O[C@H](C)C2)C1 (stereo partly drawn) [Example AB, Methyl {(2S)-1-[(2S,5S)-2-(9-{2-[(2S,4S)-1-{(2S)-2-[(2R,6R)-2,6-dimethyltetrahydro-2H-pyran-4-yl]-2-[(methoxycarbonyl)amino]acetyl}-4-(methoxymethyl)pyrrolidin-2-yl]-1H-imidazol-5-yl}-1,11-dihydroisochromeno[4′,3′:6,7]naphtho[1,2-d]imidazol-2-yl)-5-methylpyrrolidin-1-yl]-3-methyl-1-oxobutan-2-yl}carbamate] | 0.046 | 0.026 | 0.011 | 0.028 | 0.024 | 0.025 | 0.006 | 0.668 | 0.082 | 0.163 | 0.418 | 8.77
